# Experimental data from PMC11604427 (Frontiers in Pharmacology, 2024).
# Tests used:
# HepG2/MDR = experiment: MTT assay; format: cell-based; details: Homo sapiens, multidrug-resistant HepG2/MDR, 48 h, read-out: IC50 (μM) ± SD HepG2/MDR
# Method: (§1) Cells at a density of 4×10^3 cells/well were inoculated into 96-well plates for overnight culture at 37°C. […] Then, 100 μL of a 0.5 mg/mL MTT solution was pipetted into each well, and the incubation was prolonged for 4 h, resulting in the formation of a purple precipitate. Afterward, 200 μL of DMSO was added to each well, and the plate was vortexed for 10 min. The absorbance at 570 nm was determined with a Synergy 4 microplate reader (BioTek, United States). Each experiment was performed three times under the same conditions.
# HepG2 = experiment: MTT assay; format: cell-based; details: Homo sapiens, HepG2, 48 h, read-out: IC50 (μM) ± SD HepG2
# Method: as §1
# Huh7 = experiment: MTT assay; format: cell-based; details: Homo sapiens, Huh-7, Huh7, 48 h, read-out: IC50 (μM) ± SD Huh7
# Method: as §1
# SNU449 = experiment: MTT assay; format: cell-based; details: Homo sapiens, SNU-449, SNU449, 48 h, read-out: IC50 (μM) ± SD SNU449
# Method: as §1
# [1] = system: normal human liver cell line L02; experiment: MTT assay; format: cell-based; details: normal liver cell line L02, 48 h
# Method: as §1
# HepG2 xenograft = experiment: HepG2 bearing xenograft model; format: in vivo, BALB/c nude mice; details: versus vehicle
# Text: A previously reported human tumor xenograft model was established to evaluate the anti-tumor effects of PKHD-5 in vivo ([Zhou et al., 2022]). All procedures involving animals were granted approval by the Ethics Committee at China Pharmaceutical University. A total of 20 male BALB/c nude mice (6 weeks old) were purchased from Changzhou Cave Experimental Animal Co., Ltd. (Changzhou, China). Mice were maintained under specific pathogen-free (SPF) conditions, with environmental parameters meticulously controlled at a temperature of 25°C ± 2°C, relative humidity maintained at 50% ± 5%, and an established diurnal cycle of 12 h for both light and darkness. During the experiment, all mice were free to access water and food. After 10 days of adaptive feeding, HepG2 cells (1×10^7 cells) were subcutaneously injected into mice. Once the tumors reached a size of 90–120 mm^3, the nude mice were randomly assigned to either the vehicle control group or the group treated with PKHD-5 (n = 5). Furthermore, the treatment was divided into three dose-based groups of 1, 5, and 10 mg/kg. The tumor volume was measured by a digital caliper for a total of 18 days and calculated by the following formula: (c×c×d)/2, where c represents the minimum diameter of the tumor and d indicates the maximum diameter. In addition, the body weight of the mice was measured and recorded every 3 days.
# AXL = target: T1, AXL (Homo sapiens, UniProt P30530); experiment: SelectScreen kinase selectivity assay; format: biochemical
# T1 construct: purchased Thermo Fisher Scientific (SelectScreen service)
# Method: (§2) The kinase selectivity analysis of PKHD-5 was performed using the SelectScreen kinase analysis service provided by Thermo Fisher Scientific. The experiment initially involved the preparation of a series of inhibitor solutions at varying concentrations, which were then reacted with various kinase targets under standardized conditions to calculate the percentage inhibition for each test solution. Ultimately, the IC50 values were calculated based on the concentration-inhibition curves by fitting a four-parameter logistic curve, thereby assessing the potency and selectivity of the inhibitors. The analysis results are detailed in Supplementary Table S1.
# BLK = target: T2, BLK (Homo sapiens, UniProt P51451); experiment: SelectScreen kinase selectivity assay; format: biochemical
# T2 construct: purchased Thermo Fisher Scientific (SelectScreen service)
# Method: as §2
# BTK = target: T3, BTK (Homo sapiens, UniProt Q06187); experiment: SelectScreen kinase selectivity assay; format: biochemical
# T3 construct: purchased Thermo Fisher Scientific (SelectScreen service)
# Method: as §2
# DDR1 = target: T4, DDR1 (Homo sapiens, UniProt Q08345); experiment: SelectScreen kinase selectivity assay; format: biochemical
# T4 construct: purchased Thermo Fisher Scientific (SelectScreen service)
# Method: as §2
# EPHA1 = target: T5, EPHA1 (Homo sapiens, UniProt P21709); experiment: SelectScreen kinase selectivity assay; format: biochemical
# T5 construct: purchased Thermo Fisher Scientific (SelectScreen service)
# T5 sequence (P21709 26-976): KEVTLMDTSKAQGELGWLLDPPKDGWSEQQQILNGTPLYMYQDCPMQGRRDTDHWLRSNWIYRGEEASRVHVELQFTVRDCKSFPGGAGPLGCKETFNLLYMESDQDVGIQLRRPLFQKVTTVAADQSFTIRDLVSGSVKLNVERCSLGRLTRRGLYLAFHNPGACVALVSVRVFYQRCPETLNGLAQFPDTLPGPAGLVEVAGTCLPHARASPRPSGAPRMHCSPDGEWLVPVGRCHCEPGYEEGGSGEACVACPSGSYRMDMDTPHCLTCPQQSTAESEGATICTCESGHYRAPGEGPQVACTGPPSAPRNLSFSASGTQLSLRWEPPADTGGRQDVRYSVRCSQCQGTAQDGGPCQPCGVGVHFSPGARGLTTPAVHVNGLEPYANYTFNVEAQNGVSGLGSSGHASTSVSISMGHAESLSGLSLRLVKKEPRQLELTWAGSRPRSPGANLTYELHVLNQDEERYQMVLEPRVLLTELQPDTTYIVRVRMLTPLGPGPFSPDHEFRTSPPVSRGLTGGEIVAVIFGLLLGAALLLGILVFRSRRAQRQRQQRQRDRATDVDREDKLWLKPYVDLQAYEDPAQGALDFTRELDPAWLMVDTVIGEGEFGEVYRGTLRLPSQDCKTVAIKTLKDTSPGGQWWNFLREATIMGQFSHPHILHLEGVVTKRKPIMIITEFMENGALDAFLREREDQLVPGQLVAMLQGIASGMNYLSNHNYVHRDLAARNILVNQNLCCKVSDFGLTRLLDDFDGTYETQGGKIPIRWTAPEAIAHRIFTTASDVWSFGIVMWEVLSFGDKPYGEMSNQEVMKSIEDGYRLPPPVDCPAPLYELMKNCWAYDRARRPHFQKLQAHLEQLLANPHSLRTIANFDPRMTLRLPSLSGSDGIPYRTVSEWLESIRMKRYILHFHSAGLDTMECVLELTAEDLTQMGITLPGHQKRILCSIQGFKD
# Method: as §2
# EPHA2 = target: T6, EPHA2 (Homo sapiens, UniProt P29317); experiment: SelectScreen kinase selectivity assay; format: biochemical
# T6 construct: purchased Thermo Fisher Scientific (SelectScreen service)
# Method: as §2
# EPHA3 = target: T7, EPHA3 (Homo sapiens, UniProt P29320); experiment: SelectScreen kinase selectivity assay; format: biochemical
# T7 construct: purchased Thermo Fisher Scientific (SelectScreen service)
# T7 sequence (P29320 21-983): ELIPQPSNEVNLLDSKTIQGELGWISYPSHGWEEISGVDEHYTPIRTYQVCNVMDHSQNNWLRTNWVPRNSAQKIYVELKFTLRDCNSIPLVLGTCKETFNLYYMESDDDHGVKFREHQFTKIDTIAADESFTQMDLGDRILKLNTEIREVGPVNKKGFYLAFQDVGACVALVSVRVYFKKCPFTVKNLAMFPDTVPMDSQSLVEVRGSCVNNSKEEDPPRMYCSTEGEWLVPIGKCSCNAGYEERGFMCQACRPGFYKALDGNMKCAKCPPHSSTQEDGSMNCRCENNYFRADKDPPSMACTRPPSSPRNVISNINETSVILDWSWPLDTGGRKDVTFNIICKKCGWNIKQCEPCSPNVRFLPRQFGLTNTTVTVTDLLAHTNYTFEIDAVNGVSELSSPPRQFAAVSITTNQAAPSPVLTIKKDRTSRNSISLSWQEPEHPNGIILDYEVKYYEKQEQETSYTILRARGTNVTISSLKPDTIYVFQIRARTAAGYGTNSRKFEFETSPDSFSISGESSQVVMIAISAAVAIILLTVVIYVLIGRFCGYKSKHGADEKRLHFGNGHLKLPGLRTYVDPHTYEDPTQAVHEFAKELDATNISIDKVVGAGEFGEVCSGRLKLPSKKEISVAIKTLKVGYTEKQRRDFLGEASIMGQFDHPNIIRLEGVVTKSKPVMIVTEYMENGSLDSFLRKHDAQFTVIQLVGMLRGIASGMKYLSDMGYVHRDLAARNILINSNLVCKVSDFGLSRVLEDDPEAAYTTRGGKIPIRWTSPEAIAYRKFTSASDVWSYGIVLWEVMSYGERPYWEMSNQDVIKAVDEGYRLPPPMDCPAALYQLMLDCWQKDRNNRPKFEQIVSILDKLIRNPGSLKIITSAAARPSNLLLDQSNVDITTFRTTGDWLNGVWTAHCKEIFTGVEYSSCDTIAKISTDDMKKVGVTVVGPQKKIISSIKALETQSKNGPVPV
# Method: as §2
# EPHA4 = target: T8, EPHA4 (Homo sapiens, UniProt P54764); experiment: SelectScreen kinase selectivity assay; format: biochemical
# T8 construct: purchased Thermo Fisher Scientific (SelectScreen service)
# Method: as §2
# EPHA7 = target: T9, EPHA7 (Homo sapiens, UniProt Q15375); experiment: SelectScreen kinase selectivity assay; format: biochemical
# T9 construct: purchased Thermo Fisher Scientific (SelectScreen service)
# T9 sequence (Q15375 28-998): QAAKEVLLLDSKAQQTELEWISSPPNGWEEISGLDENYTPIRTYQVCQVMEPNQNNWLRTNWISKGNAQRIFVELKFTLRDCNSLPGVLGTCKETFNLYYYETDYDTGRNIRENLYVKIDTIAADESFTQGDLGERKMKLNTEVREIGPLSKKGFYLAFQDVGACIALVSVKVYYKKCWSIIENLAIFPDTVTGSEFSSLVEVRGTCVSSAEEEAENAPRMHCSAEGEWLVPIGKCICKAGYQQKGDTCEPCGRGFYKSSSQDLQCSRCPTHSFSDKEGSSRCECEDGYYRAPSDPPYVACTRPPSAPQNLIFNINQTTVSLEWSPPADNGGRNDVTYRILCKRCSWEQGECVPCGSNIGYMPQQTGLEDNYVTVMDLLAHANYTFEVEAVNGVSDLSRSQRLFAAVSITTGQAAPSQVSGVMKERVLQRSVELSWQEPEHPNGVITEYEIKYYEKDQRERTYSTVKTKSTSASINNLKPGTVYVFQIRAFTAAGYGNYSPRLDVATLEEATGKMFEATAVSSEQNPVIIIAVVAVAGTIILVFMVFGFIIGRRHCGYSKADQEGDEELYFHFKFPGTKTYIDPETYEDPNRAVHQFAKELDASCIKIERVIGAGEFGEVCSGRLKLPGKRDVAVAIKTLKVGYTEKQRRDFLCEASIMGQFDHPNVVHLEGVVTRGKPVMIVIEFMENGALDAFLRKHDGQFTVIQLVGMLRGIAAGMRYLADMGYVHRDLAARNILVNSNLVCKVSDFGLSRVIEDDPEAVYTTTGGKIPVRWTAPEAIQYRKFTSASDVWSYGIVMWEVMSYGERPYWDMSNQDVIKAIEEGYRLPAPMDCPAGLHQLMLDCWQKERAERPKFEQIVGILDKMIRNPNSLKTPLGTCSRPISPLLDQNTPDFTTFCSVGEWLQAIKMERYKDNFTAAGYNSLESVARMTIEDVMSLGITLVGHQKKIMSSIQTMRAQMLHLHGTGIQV
# Method: as §2
# EPHB1 = target: T10, EPHB1 (Homo sapiens, UniProt P54762); experiment: SelectScreen kinase selectivity assay; format: biochemical
# T10 construct: purchased Thermo Fisher Scientific (SelectScreen service)
# T10 sequence (P54762 18-984): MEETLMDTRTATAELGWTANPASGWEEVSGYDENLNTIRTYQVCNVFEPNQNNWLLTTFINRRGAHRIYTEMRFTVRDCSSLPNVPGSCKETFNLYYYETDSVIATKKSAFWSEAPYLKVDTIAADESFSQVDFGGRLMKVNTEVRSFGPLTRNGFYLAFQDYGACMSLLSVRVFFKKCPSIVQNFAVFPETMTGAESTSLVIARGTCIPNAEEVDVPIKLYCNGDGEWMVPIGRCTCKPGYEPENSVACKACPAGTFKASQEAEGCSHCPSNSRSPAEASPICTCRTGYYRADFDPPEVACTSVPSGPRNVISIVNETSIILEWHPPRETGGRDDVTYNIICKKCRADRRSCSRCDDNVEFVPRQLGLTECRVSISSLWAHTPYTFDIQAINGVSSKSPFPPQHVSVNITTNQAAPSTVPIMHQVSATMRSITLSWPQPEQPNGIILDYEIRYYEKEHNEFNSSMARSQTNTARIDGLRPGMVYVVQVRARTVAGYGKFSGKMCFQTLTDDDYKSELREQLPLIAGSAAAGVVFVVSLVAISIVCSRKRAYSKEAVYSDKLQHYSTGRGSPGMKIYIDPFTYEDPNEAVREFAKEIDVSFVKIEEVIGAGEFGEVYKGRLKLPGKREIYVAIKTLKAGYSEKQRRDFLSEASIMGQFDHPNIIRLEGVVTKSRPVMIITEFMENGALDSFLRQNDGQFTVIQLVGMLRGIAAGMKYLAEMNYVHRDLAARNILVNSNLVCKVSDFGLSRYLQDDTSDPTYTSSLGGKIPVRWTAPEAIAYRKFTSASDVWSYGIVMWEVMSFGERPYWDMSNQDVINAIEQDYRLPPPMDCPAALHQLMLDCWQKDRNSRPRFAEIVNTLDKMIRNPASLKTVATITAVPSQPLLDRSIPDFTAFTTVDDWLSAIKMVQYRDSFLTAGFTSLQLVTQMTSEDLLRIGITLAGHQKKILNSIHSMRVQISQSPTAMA
# Method: as §2
# FGFR3 = target: T11, FGFR3 (Homo sapiens, UniProt P22607); experiment: SelectScreen kinase selectivity assay; format: biochemical
# T11 construct: purchased Thermo Fisher Scientific (SelectScreen service)
# Method: as §2
# FGFR4 = target: T12, FGFR4 (Homo sapiens, UniProt P22455); experiment: SelectScreen kinase selectivity assay; format: biochemical
# T12 construct: purchased Thermo Fisher Scientific (SelectScreen service)
# Method: as §2
# FGR = target: T13, FGR (Homo sapiens, UniProt P09769); experiment: SelectScreen kinase selectivity assay; format: biochemical
# T13 construct: purchased Thermo Fisher Scientific (SelectScreen service)
# T13 sequence (P09769 whole entry): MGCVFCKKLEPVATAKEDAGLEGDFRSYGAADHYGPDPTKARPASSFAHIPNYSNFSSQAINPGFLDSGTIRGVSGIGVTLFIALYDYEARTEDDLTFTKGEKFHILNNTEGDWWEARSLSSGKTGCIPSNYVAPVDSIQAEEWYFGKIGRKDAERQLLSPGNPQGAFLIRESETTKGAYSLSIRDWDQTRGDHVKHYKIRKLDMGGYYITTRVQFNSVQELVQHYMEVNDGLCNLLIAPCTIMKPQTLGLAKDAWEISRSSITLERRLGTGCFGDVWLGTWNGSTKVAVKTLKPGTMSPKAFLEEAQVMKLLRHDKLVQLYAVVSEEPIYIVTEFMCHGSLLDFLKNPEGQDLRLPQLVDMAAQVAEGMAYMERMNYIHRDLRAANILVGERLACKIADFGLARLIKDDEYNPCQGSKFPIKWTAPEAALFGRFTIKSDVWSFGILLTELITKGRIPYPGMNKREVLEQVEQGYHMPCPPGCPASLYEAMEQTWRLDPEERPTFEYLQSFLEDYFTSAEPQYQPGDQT
# Method: as §2
# FRK = target: T14, FRK (Homo sapiens, UniProt P42685); experiment: SelectScreen kinase selectivity assay; format: biochemical
# T14 construct: purchased Thermo Fisher Scientific (SelectScreen service)
# T14 sequence (P42685 whole entry): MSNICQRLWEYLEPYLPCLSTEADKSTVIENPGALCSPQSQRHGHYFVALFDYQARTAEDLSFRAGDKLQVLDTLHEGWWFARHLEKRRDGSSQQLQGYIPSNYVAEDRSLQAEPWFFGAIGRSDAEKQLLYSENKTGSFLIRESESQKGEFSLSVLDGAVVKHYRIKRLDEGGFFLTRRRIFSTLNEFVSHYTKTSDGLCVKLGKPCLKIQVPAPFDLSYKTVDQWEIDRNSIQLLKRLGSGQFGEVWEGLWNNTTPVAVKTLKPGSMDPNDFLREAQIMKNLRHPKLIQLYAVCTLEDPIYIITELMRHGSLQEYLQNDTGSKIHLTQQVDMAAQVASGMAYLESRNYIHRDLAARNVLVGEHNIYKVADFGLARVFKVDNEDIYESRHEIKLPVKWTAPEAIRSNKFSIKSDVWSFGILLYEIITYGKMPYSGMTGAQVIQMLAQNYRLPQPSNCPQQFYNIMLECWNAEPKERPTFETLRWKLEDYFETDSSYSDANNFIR
# Method: as §2
# IGF1R = target: T15, IGF1R (Homo sapiens, UniProt P08069); experiment: SelectScreen kinase selectivity assay; format: biochemical
# T15 construct: purchased Thermo Fisher Scientific (SelectScreen service)
# Method: as §2
# JAK2 = target: T16, JAK2 (Homo sapiens, UniProt O60674); experiment: SelectScreen kinase selectivity assay; format: biochemical
# T16 construct: purchased Thermo Fisher Scientific (SelectScreen service)
# Method: as §2
# KDR = target: T17, KDR (Homo sapiens, UniProt P35968); experiment: SelectScreen kinase selectivity assay; format: biochemical
# T17 construct: purchased Thermo Fisher Scientific (SelectScreen service)
# Method: as §2
# NTRK2 = target: T18, NTRK2 (Homo sapiens, UniProt Q16620); experiment: SelectScreen kinase selectivity assay; format: biochemical
# T18 construct: purchased Thermo Fisher Scientific (SelectScreen service)
# Method: as §2
# PDGFRB = target: T19, PDGFRB (Homo sapiens, UniProt P09619); experiment: SelectScreen kinase selectivity assay; format: biochemical
# T19 construct: purchased Thermo Fisher Scientific (SelectScreen service)
# Method: as §2
# PLK1 = target: T20, PLK1 (Homo sapiens, UniProt P53350); experiment: SelectScreen kinase selectivity assay; format: biochemical
# T20 construct: purchased Thermo Fisher Scientific (SelectScreen service)
# Method: as §2
# PLK2 = target: T21, PLK2 (Homo sapiens, UniProt Q9NYY3); experiment: SelectScreen kinase selectivity assay; format: biochemical
# T21 construct: purchased Thermo Fisher Scientific (SelectScreen service)
# Method: as §2
# PLK3 = target: T22, PLK3 (Homo sapiens, UniProt Q9H4B4); experiment: SelectScreen kinase selectivity assay; format: biochemical
# T22 construct: purchased Thermo Fisher Scientific (SelectScreen service)
# Method: as §2
# ZAK = target: T23, ZAK (Homo sapiens, UniProt Q9NYL2); experiment: SelectScreen kinase selectivity assay; format: biochemical
# T23 construct: purchased Thermo Fisher Scientific (SelectScreen service)
# Method: as §2
smiles,measurement,setting,value
Cc1ccc(O)c(C)c1-n1c(N)c(C(N)=O)c2cc(CCCCCC(=O)NO)c(C)nc21 [PKHD-5],IC50,HepG2/MDR,0.92 ± 0.05 µM
same,IC50,HepG2,0.19 ± 0.03 µM
same,IC50,Huh7,0.47 ± 0.04 µM
same,IC50,SNU449,0.59 ± 0.06 µM
same,IC50,[1],> 100 µM
same,body weight changes in mice,HepG2 xenograft; HepG2 xenograft mice,did not exhibit any significant disparities
same,rate at which tumors grew (tumor volume),"HepG2 xenograft; HepG2 xenograft, intraperitoneal 1, 5, 10 mg/kg, 18 days",considerably lower
same,IC50,AXL,> 50 µM
same,IC50,BLK,> 50 µM
same,IC50,BTK,> 50 µM
same,IC50,DDR1,> 50 µM
same,IC50,EPHA1,> 50 µM
same,IC50,EPHA2,> 50 µM
same,IC50,EPHA3,> 50 µM
same,IC50,EPHA4,> 50 µM
same,IC50,EPHA7,> 50 µM
same,IC50,EPHB1,> 50 µM
same,IC50,FGFR3,> 50 µM
same,IC50,FGFR4,> 50 µM
same,IC50,FGR,> 50 µM
same,IC50,FRK,> 50 µM
same,IC50,IGF1R,> 50 µM
same,IC50,JAK2,> 50 µM
same,IC50,KDR,> 50 µM
same,IC50,NTRK2,> 50 µM
same,IC50,PDGFRB,> 50 µM
same,IC50,PLK1,> 50 µM
same,IC50,PLK2,> 50 µM
same,IC50,PLK3,> 50 µM
same,IC50,ZAK,> 50 µM
